Several values for one entry are separate records, joined by “and”; a condition that tells them apart may be missing. Identical values can stand only once.
Experiments:
[1] = Degradation kinetics of NRCl in aqueous solutions (Arrhenius); format: physicochemical; conditions: for activation energy Ea of degradation: 55, 65, 75°C, n = 5
Protocol: NRCl degradation products and mechanism were determined and confirmed using ^1H NMR. NRCl degradation kinetics in aqueous solution was determined using three pH environments: pH 2.0, 5.0, and 7.4 (each with a constant ionic strength of 0.3M adjusted using NaCl), and three experimental temperature conditions, namely, 55°C, 65°C, and 75°C, respectively. In all cases, five replicates were used for pH–temperature combinations and each was an individual, sealed, and labelled glass vial with 20mL of the respective buffer. For each experiment, these vials were left overnight to equilibrate to the respective temperature environment in a temperature-controlled oven. At the start of each experiment, the vials were removed and a stock solution of NR was added. Aliquots were then extracted from each vial at this point for a t = 0 and the vials were placed back into the oven until the next time point. The sampling intervals were every 2, 1, and 0.5 h for 55°C, 65°C, and 75°C, respectively, and a total of five time points were used for each individual vial. When an aliquot was removed, it was dispensed into a 2mL micro tube and placed in ice to quench the reaction until preparation for HPLC analysis.

[2] = Combinatorial DSC and 1H NMR (qNMR) thermal decomposition; format: physicochemical; conditions: quench-cooled
Protocol: A Bruker® Ultrashield 400 MHz NMR was used for NMR spectroscopy. All samples were prepared using deuterated water. For ^1H NMR spectra acquisition, 256 scans were used. A relative quantitative NMR (qNMR) method was established and validated by comparing the integral values of NR chemical shift peaks to the integral values of the peaks of Nam. The integral of a peak is directly proportional to the number of nuclei the peak represents and the molar concentration of the compound in the sample ([14]). The percentage of NR was calculated using Equation 2 (modified from the literature), where INR H2 and INam H2 were the integral values of the singlet of NR H2 at 9.6 ppm and the singlet for Nam H2 at 8.6 ppm, respectively. N represents the number of nuclei (protons) that contribute to each peak. In this case, N = 1 for both NR H2 and Nam H2 peaks as they represent one proton each.
% NR in smaple=(INR H2/NNR H2)/(INR H2/NNR H2)+(INam H2/NNam H2)×100 Equation 2
DSC was used in conjunction with ^1H NMR spectroscopy to assess NR stability at certain temperatures and confirm compositional change throughout the entire thermal degradation process. […] This was then repeated in pans with no lids and these pans were then put in 1mL of D2O until all the contents were fully dissolved. The resulting D2O solutions were then subjected to ^1H NMR analysis, as previously detailed, to assess the stability of NRCl at each stage of its melting motif.

[3] = design: method as in PMID 26791540; conditions: cited from earlier work
mammalian cell lines = test system: mammalian cell lines; design: method as in PMID 18052316; conditions: cited from earlier work
Sirtuin (SIRT) = test system: Sirtuin (SIRT); design: method as in PMID 12297502, PMID 14522996, PMID 12899610; conditions: cited from earlier work
[4] = Experimental determination of pKa by UV spectroscopy; format: physicochemical; conditions: NaOH solutions; first focused experiment, pH range 11.0–12.2
Protocol: NR stock solution was added to nine respective buffer solutions ranging from pH 1.5 to 12.8 and analysed by UV spectroscopic scanning over 200–500 nm using a Cary 50 scan UV-visible spectrophotometer (Agilent Technologies, USA). […] Equation 1 is a modified Beers–Lambert and Henderson–Hasselbalch equation ([14]). This was used to calculate pKa. AI is the absorbance of the ionised species, AM is the absorbance of the molecular species, and A is the absorbance at any given pH. The same method as above was then repeated using the same parameters and equipment for a duplicate result.
pKa=pH+logAI−A/A−AM Equation 1

[5] = Aqueous solubility determination; format: physicochemical; conditions: for solubility at 24 h: aqueous buffer, thermodynamic from solid
Protocol: Three pH environments, namely pH 2.0, 5.0, and, 7.4, were used to determine the aqueous solubility of NR. Each buffer was added to a glass vial and stored at 4°C prior to the experiments. NRCl powder was then slowly added over a 24-h-periodunder constant mixing until the solution was clearly saturated (visual observation, n = 3). Aliquots were then drawn from each vial and passed through a 0.22 μm syringe filter unit (Millipore, Merck, USA). Samples were then analysed using the validated HPLC method.

[6] = NRCl stability in simulated gastrointestinal fluids; format: physicochemical
Protocol: NRCl powder was tested under simulated GI conditions to assess the stability of the raw material in fluids relevant to the GI physiology. These experiments were carried out using a Copley™ dissolution bath equipped with the USP II paddle apparatus at a stirring rate of 75rpm and a temperature of 37°C± 0.1°C. Five dissolution media were tested (Table 2). 0.1N HCl, USP simulated gastric fluid without pepsin (USP SGFW/O pepsin), and USP simulated gastric fluid with pepsin (USP SGF) were used to simulate the stomach environment. Phosphate standard buffer (Int. Pharm. SIF) and simulated intestinal fluid pH 6.8 (USP SIF) were used to simulate the intestinal environment. A 24-h simulation was also performed using the USP prolonged release (USP PR) method whereby for the first 2 h of the experiment the NRCl was added to 750 mL 0.1N HCl. Subsequently, 250 mL of 0.2M trisodium phosphate was added and pH adjusted to pH 6.8 for the remaining 22 h. This step-change pH model simulates the pH change in traversing from the stomach to the intestine ([15]).

human blood NAD+ = test system: human blood NAD+; design: method as in PMID 27721479; conditions: after one single oral dose; cited from earlier work

## NC(=O)c1ccc[n+]([C@@H]2O[C@H](CO)[C@@H](O)[C@H]2O)c1 [NR, Nicotinamide riboside]
[1]; pH 2.0
  pre-exponential factor A of degradation: 4.8e+10 min⁻¹
  activation energy Ea of degradation: 75.4 (±2.9) kJ/mol and 75.4 kJ/mol
[1]; pH 5.0
  pre-exponential factor A of degradation: 3.2e+10 min⁻¹
  activation energy Ea of degradation: 76.9 (±1.1) kJ/mol and 76.9 kJ/mol
[1]; pH 7.4
  pre-exponential factor A of degradation: 1.8e+12 min⁻¹
  activation energy Ea of degradation: 82.8 kJ/mol
[1]; same pH environment
  increase in the degradation rate for every 10°C temperature elevation: approximate twofold increase
[2]; solid heated to 115°C
  degradation (qNMR): 2%
[2]; solid heated to 120°C
  degradation (qNMR): 7%
[2]; solid heated to 125°C
  degradation (qNMR): 55%
[2]; solid heated to 140°C
  share of the sample that was NR (qNMR): 0.45%
[3]
  lowest adverse effect level: 1,000 mg/kg/day
  no-observed-adverse-effect level (NOAEL): 300 mg/kg/day
Mammalian cell lines
  increase of available NAD+: up to twofold

## NC(=O)c1cccnc1 [Nam, Nicotinamide]
Sirtuin (SIRT)
  Sirtuin (SIRT) inhibition: known Sirtuin (SIRT) inhibitor

## NC(=O)c1ccc[n+]([C@@H]2O[C@H](CO)[C@@H](O)[C@H]2O)c1 [NRCl, nicotinamide riboside chloride]
[4]
  pKa: 11.5 ± 0.2
[5]; all three tested pH environments (2.0, 5.0, 7.4), freely soluble = 100–1,000 mg/mL
  solubility class according to the USP definitions: freely soluble
[5]; pH 7.4, aqueous buffer
  solubility at 24 h: 826 ± 34.4 mg/mL
[5]; pH 2.0
  solubility at 24 h: 972.7 ± 8.1 mg/mL
[5]; pH 5.0
  solubility at 24 h: 860 ± 31 mg/mL
[6]; 0.1N HCl pH 1.2, 37°C, 75rpm, after 2 h
  NRCl remaining: 97.64 ± 0.08%
[6]; 24-h GI simulation (USP PR, pH 1.2 then 6.8 after 2 h), after 8 h
  NRCl remaining: 90.51 ± 0.82%
[6]; Int. Pharm. SIF pH 6.8, 37°C, after 2 h
  NRCl remaining: 94.32 ± 1.16%
[6]; Int. Pharm. SIF pH 6.8, 37°C, after another 2 h (4 h)
  NRCl remaining: 92.71 ± 0.81%
[6]; USP SGF (with pepsin) pH 1.2, 37°C, 75rpm, after 2 h
  NRCl remaining: 97.17 ± 0.19%
[6]; USP SGF without pepsin pH 1.2, 37°C, 75rpm, after 2 h
  NRCl remaining: 98.59 ± 0.10%
[6]; USP SIF pH 6.8, 37°C, after 2 h
  NRCl remaining: 94.71 ± 2.66%
[6]; USP SIF pH 6.8, 37°C, after another 2 h (4 h)
  NRCl remaining: 93.54 ± 2.37%
[1]; at each respective temperature
  change of degradation rate on raising the pH value from 5.0 to 7.4: doubled
[1]; pH 7.4
  activation energy Ea of degradation: 82.8 (±4.4) kJ/mol
[2]; solid heated to 115°C
  degradation (qNMR): completely intact
Human blood NAD+
  increase in human blood NAD+: more than twofold

From publication PMC6878970, “Understanding the physicochemical properties and degradation kinetics of nicotinamide riboside, a promising vitamin B3nutritional supplement” (Food & Nutrition Research, 2019)
